Results as given in patent US11274091B2 (Dizal (Jiangsu) Pharmaceutical Co., Ltd., priority 2018, dated 2022).

Legend:
human TRPC3 ion channel = human TRPC3 ion channel (Homo sapiens (Human), UniProt Q13507); assay: Inhibition of TRPC3 FLIPR Assay (membrane potential dye, OAG challenge); format: cell-based; details: TRPC3 transfected AD293 cells, OAG at EC80; most potent isolated isomer; mean of minimum 2 experiments
From the text: (§1) TRPC3 and TRPC6 channel opening causes an influx of predominantly calcium and sodium cations that result in a change in the electrical potential across the cell membrane. This change in membrane potential can be monitored using membrane potential dyes in the following FLIPR™ (Fluorescent Imaging Plate Reader) assays.
AD293 cells were transfected using the PLVX-puro lentivirus vector containing the coding sequence of the human TRPC3 ion channel. Puromycin-resistant cells were selected by treating with […] puromycin for two weeks. Monoclonal cells were obtained by limiting dilution and compared for their response to OAG in a membrane potential assay. The cells were grown in DMEM+10% fetal bovine serum (FBS)+1 μg/mL puromycin as culture medium.
TRPC3 cells were plated at 9K/well into 384-well polystyrene plates. Cells were grown for 24 h at 37° C. plus 5% CO2 after which media was aspirated using a Tecan plate washer and replaced with 40 μL of dye loading buffer (130 mM NaCl, 5 mM KCl, 0.15 mM CaCl2, 1 mM MgCl2, 20 mM HEPES ((4-(2-hydroxyethyl)-1-piperazineethanesulfonic acid)), 5 mM NaHCO3). For TRPC3 a final concentration of 0.5× membrane potential dye (Molecular Devices Membrane Blue, FLIPR Membrane Potential Assay Kit (bulk), Product #R8034(BLUE), Molecular Devices, Sunnyvale, Calif., 94089, USA) was used. Cells with membrane potential dye were then incubated for 30 mins at room temperature prior to beginning the experiments.
To test the effects of compounds on TRPC3 activity, compounds were first diluted in 100% DMSO to 3× the final concentration to be used in the experiments. Typical dose-response experiments ranged from 10 μM (top concentration) to 0.5 nM (lowest concentration). Ten microliters of 5× compound in 0.5% DMSO were added to 40 μL of cells incubated with membrane potential dye. Compound addition was performed on a FLIPRTetra or a FLIPR 384 (MDS Analytical Technologies). After a 400 second incubation with compound, 12.5 μL of OAG was added at 5× the EC80 (typical EC80 for TRPC3=2 μM final). The OAG challenge is designed to measure the inhibitory activity of compounds on receptor-operated TRPC3 activation.
(§2) All data was normalized to low controls (buffer alone) or high controls (OAG EC100). Data was analyzed using an XC50 curve fitting module and reported as pIC50 or IC50 values. The values are averaged to determine a mean value, for a minimum of 2 experiments.

human TRPC6 ion channel = human TRPC6 ion channel (Homo sapiens (Human), UniProt Q9Y210); assay: Inhibition of TRPC6 FLIPR Assay (membrane potential dye, OAG challenge); format: cell-based; details: TRPC6-HEK293 cells, OAG at EC80; most potent isolated isomer; mean of minimum 2 experiments
From the text: as §1
TRPC6-HEK293 was purchased from PerkinElmer (PerkinElmer, Product No.: AX-012-C), HEK293 cells were transfected using the pcDNA3.1(+)expression vector containing the coding sequence of the human TRPC6 ion channel. The coding sequence used is identical to coding sequence of GenBank NM_004621 with the exception of 2 synonym variations (t1683c and c2529t). The cells were grown in DMEM+10% fetal bovine serum (FBS) 0.5 mg/ml. Geneticin (ion channel expression selection) as culture medium.
TRPC6 cells were plated at 10K cells/well into 384-well polystyrene plates and then grown for 24 hs at 37° C. plus 5% CO2. After this time the media was aspirated using a Tecan plate washer and then replaced with 40 μL of dye loading buffer (130 mM NaCl, 5 mM KCl, 0.15 mM CaCl2, 1 mM MgCl2, 20 mM HEPES ((4-(2-hydroxyethyl)-1-piperazineethanesulfonic acid)), 5 mM NaHCO3). For TRPC6, a final concentration of 0.5× is used. Cells with membrane potential dye were then incubated for 30 mins at room temperature prior to beginning the experiments.
To test the effects of compounds on TRPC6 activity, compounds were first diluted in 100% DMSO to 3× the final concentration to be used in the experiments. Typical dose-response experiments ranged from 10 μM (top concentration) to 0.5 nM (lowest concentration). Ten microliters of […] compound in 0.5% DMSO were added to 40 μL of cells incubated with membrane potential dye. Compound addition was performed on a FLIPRTetra or a FLIPR 384 (MDS Analytical Technologies, Molecular Devices, Sunnyvale, Calif., 94089, USA). After a 400 second incubation with compound, […] OAG (1-oleoyl-2-acetyl-sn-glycerol (OAG), Sigma, Gillingham, Dorset, SP8 4XT Cat #O6754-10 MG) was added at 5× the EC80 (typical EC80 for TRPC6=3 μM final). The OAG challenge is designed to measure the inhibitory activity of compounds on receptor-operated TRPC6 activation.
as §2

human TRPC6 ion channel, sequence (Q9Y210 whole entry): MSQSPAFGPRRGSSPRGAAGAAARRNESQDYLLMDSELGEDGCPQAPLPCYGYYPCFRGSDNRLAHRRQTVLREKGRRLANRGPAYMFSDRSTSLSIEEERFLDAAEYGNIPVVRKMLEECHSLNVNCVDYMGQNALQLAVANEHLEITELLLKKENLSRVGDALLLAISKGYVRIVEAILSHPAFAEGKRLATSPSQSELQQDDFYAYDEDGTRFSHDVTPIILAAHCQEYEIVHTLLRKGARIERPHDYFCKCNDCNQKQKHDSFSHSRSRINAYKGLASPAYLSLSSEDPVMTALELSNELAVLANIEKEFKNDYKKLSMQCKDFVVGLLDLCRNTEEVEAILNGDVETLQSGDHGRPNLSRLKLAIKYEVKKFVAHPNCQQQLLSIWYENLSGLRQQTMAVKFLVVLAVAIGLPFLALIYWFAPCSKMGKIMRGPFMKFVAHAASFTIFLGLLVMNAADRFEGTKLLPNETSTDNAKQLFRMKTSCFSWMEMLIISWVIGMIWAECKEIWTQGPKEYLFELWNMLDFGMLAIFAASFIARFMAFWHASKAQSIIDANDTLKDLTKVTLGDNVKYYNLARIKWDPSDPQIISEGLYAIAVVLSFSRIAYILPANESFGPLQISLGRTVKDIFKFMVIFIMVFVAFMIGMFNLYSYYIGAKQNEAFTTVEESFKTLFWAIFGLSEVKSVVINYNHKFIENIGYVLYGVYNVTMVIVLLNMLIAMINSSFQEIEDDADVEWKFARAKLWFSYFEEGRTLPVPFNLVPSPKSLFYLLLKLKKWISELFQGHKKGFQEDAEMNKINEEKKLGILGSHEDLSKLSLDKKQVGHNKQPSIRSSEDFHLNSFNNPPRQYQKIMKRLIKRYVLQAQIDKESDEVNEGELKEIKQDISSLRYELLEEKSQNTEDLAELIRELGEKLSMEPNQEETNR
human TRPC3 ion channel, sequence (Q13507 whole entry): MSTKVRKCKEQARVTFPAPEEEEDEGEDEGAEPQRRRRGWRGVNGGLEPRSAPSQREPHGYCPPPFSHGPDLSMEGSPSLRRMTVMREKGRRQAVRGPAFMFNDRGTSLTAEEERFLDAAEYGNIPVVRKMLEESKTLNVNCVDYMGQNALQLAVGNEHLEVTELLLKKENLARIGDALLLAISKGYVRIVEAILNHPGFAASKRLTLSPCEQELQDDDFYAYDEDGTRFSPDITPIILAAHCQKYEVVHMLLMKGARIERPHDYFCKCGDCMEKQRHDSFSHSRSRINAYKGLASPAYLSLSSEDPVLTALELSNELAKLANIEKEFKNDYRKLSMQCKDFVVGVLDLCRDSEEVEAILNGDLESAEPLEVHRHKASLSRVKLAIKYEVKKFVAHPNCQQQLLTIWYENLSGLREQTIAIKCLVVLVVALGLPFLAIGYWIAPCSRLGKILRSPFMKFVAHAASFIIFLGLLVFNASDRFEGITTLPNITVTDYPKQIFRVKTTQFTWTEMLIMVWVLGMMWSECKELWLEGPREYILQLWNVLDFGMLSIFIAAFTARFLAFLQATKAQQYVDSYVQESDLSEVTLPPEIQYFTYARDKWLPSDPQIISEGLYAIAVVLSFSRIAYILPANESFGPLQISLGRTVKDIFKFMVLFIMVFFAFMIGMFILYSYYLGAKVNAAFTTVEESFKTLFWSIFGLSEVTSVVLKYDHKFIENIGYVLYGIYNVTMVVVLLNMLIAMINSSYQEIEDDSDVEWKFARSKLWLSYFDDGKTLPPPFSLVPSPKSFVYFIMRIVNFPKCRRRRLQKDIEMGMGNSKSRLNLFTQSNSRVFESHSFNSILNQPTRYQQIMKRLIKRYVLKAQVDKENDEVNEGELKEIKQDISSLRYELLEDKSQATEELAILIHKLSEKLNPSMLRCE

Structure (SMILES) | IC50 (human TRPC3 ion channel) [nM] | IC50 (human TRPC6 ion channel) [nM]
NC1CCCN(C2CC(c3ccc(F)cc3)CC2Oc2cccnn2)C1 (stereo not shown) [Example 28, 1-[4-(4-fluorophenyl)-2-pyridazin-3-yloxy-cyclopentyl]piperidin-3-amine] | 32.2 | 17.8
NC1CC(F)CN(C2CC(c3ccc(F)cc3)CC2Oc2ccncn2)C1 (stereo not shown) [Example 29, 5-fluoro-1-[4-(4-fluorophenyl)-2-pyrimidin-4-yloxy-cyclopentyl]piperidin-3-amine] | 3.68 | 3.44
N#Cc1cnc(OC2CC(c3ccc(F)cc3)CC2N2CCCC(N)C2)nc1 (stereo not shown) [Example 30, 2-[2-(3-amino-1-piperidyl)-4-(4-fluorophenyl)cyclopentoxy]pyrimidine-5-carbonitrile] | 24 | 11.5
N#Cc1cnc(OC2CC(c3ccc(F)cc3)CC2N2CCCC(N)C2)cn1 (stereo not shown) [Example 31, 5-[2-(3-amino-1-piperidyl)-4-(4-fluorophenyl)cyclopentoxy]pyrazine-2-carbonitrile] | 25.5 | 13.7
N#Cc1ncc(OC2CC(c3ccc(F)cc3)CC2N2CCCC(N)C2)cn1 (stereo not shown) [Example 32, 5-[2-(3-amino-1-piperidyl)-4-(4-fluorophenyl)cyclopentoxy]pyrimidine-2-carbonitrile] | 39.2 | 10.6
